Test results reported in ChEMBL document CHEMBL3751665, “Identification of a novel NAMPT inhibitor by combinatorial click chemistry and chemical refinement” (Medchemcomm, 2015).

How the values were obtained:
SH-SY5Y [1] = experiment: Cytotoxicity against human SH-SY5Y cells assessed as cell viability at 10 uM after 48 hrs by MTT assay relative to control; assay type: functional; settings: read-out: Activity
SH-SY5Y [2] = experiment: Cytotoxicity against human SH-SY5Y cells assessed as cell viability at 1 uM after 48 hrs by MTT assay relative to control; assay type: functional; settings: read-out: Activity
[3] = biological target: Nicotinamide phosphoribosyltransferase (Mus musculus, UniProt Q99KQ4); experiment: Inhibition of recombinant mouse NAMPT expressed in bacteria assessed as reduction in NADH formation using [14C]NAM as substrate measured for 1 hr by coupled enzymatic assay
SH-SY5Y [4] = experiment: Cytotoxicity against human SH-SY5Y cells assessed as reduction in cell viability after 48 hrs by MTT assay; assay type: functional, cell-based
[5] = biological target: Nicotinamide phosphoribosyltransferase (Homo sapiens, UniProt P43490); experiment: Inhibition of NAMPT in human SH-SY5Y cells assessed as NAD depletion incubated for 16 hrs; assay type: cell-based
SH-SY5Y [6] = experiment: Cytotoxicity against human SH-SY5Y cells assessed as cell viability at 100 nM after 48 hrs by MTT assay relative to control; assay type: functional; settings: read-out: Activity

Sequence of Nicotinamide phosphoribosyltransferase (Mus musculus, UniProt Q99KQ4) (Q99KQ4 whole entry): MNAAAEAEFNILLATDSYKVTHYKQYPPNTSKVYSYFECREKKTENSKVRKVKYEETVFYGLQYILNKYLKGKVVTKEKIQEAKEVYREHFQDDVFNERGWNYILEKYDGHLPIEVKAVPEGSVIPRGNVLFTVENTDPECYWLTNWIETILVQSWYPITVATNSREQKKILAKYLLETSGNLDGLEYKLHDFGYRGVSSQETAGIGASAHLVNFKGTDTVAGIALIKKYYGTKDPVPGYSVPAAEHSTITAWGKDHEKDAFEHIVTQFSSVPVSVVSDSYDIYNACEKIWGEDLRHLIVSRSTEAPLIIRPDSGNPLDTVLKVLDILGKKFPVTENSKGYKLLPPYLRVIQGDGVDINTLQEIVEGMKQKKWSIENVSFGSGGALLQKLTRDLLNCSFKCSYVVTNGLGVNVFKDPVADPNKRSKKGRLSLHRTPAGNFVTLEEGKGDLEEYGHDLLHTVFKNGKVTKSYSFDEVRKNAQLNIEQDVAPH
Sequence of Nicotinamide phosphoribosyltransferase (Homo sapiens, UniProt P43490) (P43490 whole entry): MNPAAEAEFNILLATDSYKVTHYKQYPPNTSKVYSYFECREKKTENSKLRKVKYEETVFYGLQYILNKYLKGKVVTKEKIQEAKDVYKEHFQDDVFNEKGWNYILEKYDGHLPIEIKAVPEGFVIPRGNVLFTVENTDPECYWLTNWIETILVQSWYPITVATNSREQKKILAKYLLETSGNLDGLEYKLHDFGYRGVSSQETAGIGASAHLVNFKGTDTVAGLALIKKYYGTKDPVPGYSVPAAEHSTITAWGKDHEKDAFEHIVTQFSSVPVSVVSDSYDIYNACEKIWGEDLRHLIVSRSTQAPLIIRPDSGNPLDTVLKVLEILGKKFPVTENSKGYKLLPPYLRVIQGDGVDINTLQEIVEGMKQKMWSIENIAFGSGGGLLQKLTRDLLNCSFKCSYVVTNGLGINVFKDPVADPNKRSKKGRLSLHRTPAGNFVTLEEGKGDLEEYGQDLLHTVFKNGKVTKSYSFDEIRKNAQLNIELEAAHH

| Structure (SMILES) | viability at 10 µM (SH-SY5Y [1]) [%] | viability at 1 µM (SH-SY5Y [2]) [%] | further results |
| --- | --- | --- | --- |
| CNCC(=O)N(CCn1cc(CCCCCCCC(=O)NCCc2cccnc2)nn1)Cc1ccccc1 | 109 |  |  |
| O=C(CCCCCc1cn(Cc2ccc(-c3ccccc3)cc2)nn1)NCCc1ccncc1 | 100 |  |  |
| O=C(CCCCCc1cn(-c2ccccc2-c2ccccc2)nn1)NCCc1cccnc1 | 25 | 29.2 | IC50 [3]: 170 nM; EC50 (SH-SY5Y [4]): 680 nM; IC50 [5]: 7.6 nM |
| O=C(CCCCCCCCc1cn(-c2ccc(N3CCOCC3)cc2)nn1)NCc1cccnc1 | 74 | 100 |  |
| O=C(CCCCCCCc1cn(-c2ccccc2CO)nn1)NCc1cccnc1 | 96 |  |  |
| O=C(CCCCCCCc1cn(-c2ccccc2Cc2ccccc2)nn1)NCc1cccnc1 | 94 |  |  |
| O=C(CCCCCCCc1cn(-c2ccccc2-c2ccccc2)nn1)Nc1cccnc1 | 111 |  |  |
| O=C(CCCCCCCc1cn(-c2ccccc2Cc2ccccc2)nn1)NCCc1cccnc1 | 101 |  |  |
| O=C(CCCCCc1cn(-c2ccccc2-c2ccccc2)nn1)NCc1cccnc1 | 12.5 | 13.4 | IC50 [3]: 267 nM; EC50 (SH-SY5Y [4]): 456 nM; IC50 [5]: 1.1 nM |
| O=C(/C=C/c1cccnc1)NCCCCCc1cn(-c2ccccc2-c2ccccc2)nn1 |  | 32 | viability at 0.1 µM (SH-SY5Y [6]): 49%; IC50 [3]: 114 nM; EC50 (SH-SY5Y [4]): 20 nM; IC50 [5]: 0.0509 nM |
| O=C(CCCCCCCCc1cn(-c2cnc3ccccc3c2)nn1)NCc1cccnc1 | 29 | 102 |  |
| O=C(CCCCCCCCc1cn(-c2cnc3ccccc3c2)nn1)Nc1ccncc1 | 53 | 104 |  |
| O=C(Cc1cccnc1)NCCCCCc1cn(-c2ccccc2-c2ccccc2)nn1 |  | 99 | viability at 0.1 µM (SH-SY5Y [6]): 106% |
| O=C(CCc1cccnc1)NCCCCCc1cn(-c2ccccc2-c2ccccc2)nn1 |  | 54 | viability at 0.1 µM (SH-SY5Y [6]): 112% |
| O=C(CCCCCCCCc1cn(-c2ccc(N3CCOCC3)cc2)nn1)Nc1ccncc1 | 28 | 93 |  |
| O=C(CCCCCCCc1cn(-c2ccc(N3CCOCC3)cc2)nn1)Nc1ccncc1 | 103 |  |  |
| O=C(CCCCCCc1cn(-c2ccccc2-c2ccccc2)nn1)NCc1cccnc1 | 47 | 98 |  |
| O=C(CCCCCCCc1cn(-c2ccccc2-c2ccccc2)nn1)Nc1ccncc1 | 32 | 82 |  |
| O=C(CCCCCCCc1cn(-c2ccccc2Cc2ccccc2)nn1)NCCc1ccncc1 | 99 |  |  |
| O=C(CCCCCCCc1cn(-c2ccc(CN3CCOCC3)cc2)nn1)Nc1ccncc1 | 125 |  |  |
| O=C(/C=C/c1cccnc1)NCCCCC1CCN(C(=O)c2ccccc2)CC1 [DAPORINAD] |  |  | IC50 [3]: 61 nM; EC50 (SH-SY5Y [4]): 3.2 nM |
